Patent publication US10711011B2, “Substituted oxazolidines as anti-bacterial agents” (BUGWORKS RESEARCH, INC., priority 2016, dated 2020)
≈ marks a conversion by molar mass, not a printed value.

Tests used:
K. pneumoniae ATCC 13883 = assay: Minimum Inhibitory Concentration (MIC) in LB media; assay type: cell-based, Klebsiella pneumoniae; conditions: Klebsiella pneumoniae, ATCC13883, LB Media
From the text: (§1) The compounds of Formula I are of interest due to their potent antibacterial effects. The ability of the invention compounds disclosed herein to achieve an antibacterial effect may be evaluated with regard to their ability to inhibit the growth of bacterial species like Escherichia coli ATCC 25922, Staphylococcus aureus ATCC 29213, Klebsiella pneumoniae ATCC 13883, Acinetobacter baumannii ATCC 19606, Pseudomonas aurigenosa ATCC 27853, Enterococcus faecalis ATCC 29212 and Enterococcus faecalis ATCC 29212 using an assay based on the following Minimum Inhibitory Concentration (MIC) protocol:
(§2) The test bacteria are grown in Luria Bertani Broth (HIMEDIA M1245), 25 grams of the powder is dissolved in 1000 ml distilled water and sterilized by autoclaving at 15 lbs pressure (121° C.) for 20 minutes. The medium sterility is checked by incubating at 37° C. for a period of 48 h.
(§3) Bacterial cultures that are stored as glycerol stocks at −80° C. are sub cultured on LB agar plates to obtain isolated colonies. A single colony of each strain is cultured in LB broth. The cultures are incubated at 37° C., 200 rpm till they reach an optical density (OD at 600 nm) of 0.8 to 1. […] Test compounds are dissolved in dimethyl sulfoxide (DMSO) to a stock concentration of 4 mg/ml. A twofold dilution series of this DMSO stock is prepared in a 96 well V bottom microtitre plate from rows A to H. A 3 μL volume of these dilutions are transferred to a 96-well flat bottom microtitre assay plate. Controls to monitor the effects of DMSO and media sterility are included. Each well is inoculated with 150 μL of the above diluted culture. The plates are incubated at 37° C. overnight in a humidified incubator. The following morning, the plates are read using a Spectrophotometer at 600 nm wavelength. […] The antibacterial activity (MIC) determined against representative Gram positive (S. aureus, E. faecalis) and Gram negative (E. coli, P. aurigenosa, K. pneumoniae and A. baumannii) pathogen were reported Table 1.

E. coli DNA gyrase = E. coli DNA gyrase (Escherichia coli, UniProt P0AES4+P0AES6); assay: biochemical; conditions: supercoiling assay
S. aureus ATCC 29213 = assay: Minimum Inhibitory Concentration (MIC) in LB media; assay type: cell-based, Staphylococcus aureus; conditions: Staphylococcus aureus, ATCC29213, LB Media
From the text: as §1, §2, §3

E. coli [ATCC 25922] = assay: In vivo efficacy in the mouse E. coli thigh infection model; conditions: neutropenic BALB/c mice, oral
Description: To assess the Oral efficacy, Example 13 was tested in BALB/c mice thigh infection model following per oral doses of 100 mg/kg once, 50 mg/kg once and twice, 33 mg/kg thrice and 25 mg/kg four times over a 24 hour period post infection. This study was performed following all ethical practices as laid down in the guidelines for animal care (Registration number No. 1852/PO/Rc/S/16/CPCSEA). The study was approved by the Institutional Animals Ethics Committee (IAEC) of the test facility. The formulation used was 0.1% Tween80 in 0.25% CMC and Example 13 administered as suspension through an oral gavage. Neutropenic mice were infected with [˜1×10^6 CFU/mouse] E. coli [ATCC 25922] by intramuscular route. Two hours post infection, mice were treated orally with total doses of 100, 50, 50, 33 and 25 mg/kg of Example 13 as one, two, three and four equally divided doses over a 24 h period. Animals were sacrificed 24 hr post infection and thigh tissues were harvested to enumerate the bacterial CFU count. Thigh muscles were placed in 1 ml of sterile LB broth and homogenized using a homogenizer (Omni Tip (220 volt hand held)). Serial ten-fold dilutions of the thigh homogenates were prepared in sterile LB broth, 0.05 ml of four dilutions for each thigh was plated onto Lactose agar plates. […]

P. aurigenosa ATCC 27853 = assay: Minimum Inhibitory Concentration (MIC) in LB media; assay type: cell-based, Pseudomonas aurigenosa; conditions: Pseudomonas, ATCC27853, LB Media
From the text: as §1, §2, §3

E. coli ATCC 25922 = assay: Minimum Inhibitory Concentration (MIC) in LB media; assay type: cell-based, Escherichia coli; conditions: Escherichia coli, ATCC25922, LB Media
From the text: as §1, §2, §3

E. faecalis ATCC 29212 = assay: Minimum Inhibitory Concentration (MIC) in LB media; assay type: cell-based, Enterococcus faecalis; conditions: Enterococcus faecalis, ATCC29212
From the text: as §1, §2, §3

E. coli DNA gyrase, sequence (P0AES4 whole entry, one chain of several): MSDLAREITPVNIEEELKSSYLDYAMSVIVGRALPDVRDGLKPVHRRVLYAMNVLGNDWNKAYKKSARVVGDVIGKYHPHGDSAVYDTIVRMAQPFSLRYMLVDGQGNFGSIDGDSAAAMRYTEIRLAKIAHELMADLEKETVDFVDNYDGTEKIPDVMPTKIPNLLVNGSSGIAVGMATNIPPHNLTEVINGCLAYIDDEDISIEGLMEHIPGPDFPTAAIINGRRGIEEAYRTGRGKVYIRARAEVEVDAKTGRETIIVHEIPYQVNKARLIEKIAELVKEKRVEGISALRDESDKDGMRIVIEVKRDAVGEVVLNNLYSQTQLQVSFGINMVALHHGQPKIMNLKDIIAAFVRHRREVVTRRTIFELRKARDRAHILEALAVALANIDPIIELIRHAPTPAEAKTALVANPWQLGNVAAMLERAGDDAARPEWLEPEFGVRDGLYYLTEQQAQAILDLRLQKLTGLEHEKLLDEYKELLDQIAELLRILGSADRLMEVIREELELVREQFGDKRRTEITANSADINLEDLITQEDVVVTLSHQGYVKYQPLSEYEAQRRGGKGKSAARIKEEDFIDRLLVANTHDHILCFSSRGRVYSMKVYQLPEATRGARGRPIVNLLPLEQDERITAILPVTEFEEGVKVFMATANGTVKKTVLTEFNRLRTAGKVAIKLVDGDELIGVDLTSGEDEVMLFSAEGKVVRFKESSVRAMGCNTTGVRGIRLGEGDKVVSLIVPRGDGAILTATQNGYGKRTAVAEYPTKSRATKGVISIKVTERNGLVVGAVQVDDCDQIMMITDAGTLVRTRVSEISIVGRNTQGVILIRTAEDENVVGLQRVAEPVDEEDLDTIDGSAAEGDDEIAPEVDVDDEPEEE

CN1C(=O)Cc2ccc(F)c(CCNCCC3CN(c4ccc5c(n4)NC(=O)CO5)C(=O)O3)c21 (single isomer, unassigned) [Example 13, 6-(5-(2-((2-(6-fluoro-1-methyl-2-oxoindolin-7-yl)ethyl)amino)ethyl)-2-oxooxazolidin-3-yl)-2H-pyrido[3,2-b][1,4]oxazin-3(4H)-one]
MIC (K. pneumoniae ATCC 13883): 0.125 µg/mL (≈ 0.266 µM)
IC50 (E. coli DNA gyrase): 50 nM
MIC (S. aureus ATCC 29213): 0.03 µg/mL (≈ 0.0639 µM)
efficacy (bacterial density Log 10 CFU/thigh vs vehicle) (E. coli [ATCC 25922]; 100 mg/kg as single, two, three and four equally divided doses over 24 h): significant efficacy
efficacy (bacterial density Log 10 CFU/thigh vs vehicle) (E. coli [ATCC 25922]; single dose of 50 mg/kg): ineffective
MIC (P. aurigenosa ATCC 27853): 0.5 µg/mL (≈ 1.07 µM)
MIC (E. coli ATCC 25922): 0.06 µg/mL (≈ 0.128 µM)
MIC (E. faecalis ATCC 29212): 0.25 µg/mL (≈ 0.533 µM)
